Patent US10081631B2, “2-(1H-indazol-3-yl)-1H-imidazo[4,5-C]pyridine and therapeutic uses thereof” (Samumed, LLC, priority 2014, dated 2018)

What was measured:
[1] = tested on: Wnt activity (Sp5-Luc reporter, SW480 colon carcinoma cells); assay: Screening assay for Wnt activity: Sp5-Luc reporter gene assay in SW480 cells; assay type: cell-based; conditions: Homo sapiens, 42 h incubation, luminescence
Source text: The screening assay for Wnt activity is described as follows. Reporter cell lines can be generated by stably transducing cancer cell lines (e.g., colon cancer) or primary cells (e.g., IEC-6 intestinal cells) with a lentiviral construct that includes a Wnt-responsive promoter driving expression of the firefly luciferase gene.
SW480 colon carcinoma cells were transduced with a lentiviral vector expressing luciferase with a human Sp5 promoter consisting of a sequence of eight TCF/LEF binding sites. SW480 cells stably expressing the Sp5-Luc reporter gene and a hygromycin resistance gene were selected by treatment with 150 μg/ml of hygromycin for 7 days. These stably transduced SW480 cells were expanded in cell culture and used for all further screening activities. For Sp5-Luc reporter gene assays, the cells were plated at 10,000 cells/well in 96-well plates with growth medium containing 10% fetal calf serum and incubated overnight at 37° C. and 5% CO2. Each compound was dissolved in DMSO as a 10 mM stock in standard j-vials and used to prepare compound source plates in dose-response format with 3-fold serial dilutions and a 10 mM top concentration. Compound transfer from serially diluted source plates to assay plates containing the cells was accomplished using a pintool (Multimek 96, Beckman equipped with V&P Scientific FP1S50H pins) based liquid handling protocol. This protocol used a slotted pin to transfer 50 nl of compound from a source plate well to an assay plate well containing 50 μl of cells in growth medium. […] Control wells received 50 nl of DMSO treatment for normalization and calculating IC50 values. The treated cells were incubated at 37° C. and 5% CO2 for an additional forty-two hours. Following incubation, the growth medium was removed and 50 μl of BrightGlo luminescence reagent (Promega) was added to each well of the 96-well assay plates. The plates were placed on an orbital shaker for 5 min and then luminescence was quantified on the Victor3 (Perkin Elmer) plate reader. Readings were normalized to DMSO only treated cells, and normalized activities were utilized for IC50 calculations using the dose-response log (inhibitor) vs. response-variable slope (four parameters) nonlinear regression feature available in GraphPad Prism 5.0 or 6.0.

[2] = tested on: primary human fibroblasts derived from IPF patients (LL29 cells); assay: Inhibition of fibrosis: TGF-β1-treated primary human fibroblasts from IPF patients (LL29), αSMA staining; assay type: cell-based; conditions: Fibroblast, 96 h, TGF-β1 20 ng/mL, 4 days, % αSMA-positive cells
Source text: The above synthesized compounds were screened using primary human fibroblasts (derived from IPF patients) treated with TGF-β1 to determine their ability to inhibit the fibrotic process.
Primary human fibroblasts derived from IPF patients (LL29 cells) [^1Xiaoqiu Liu, et. al., “Fibrotic Lung Fibroblasts Show Blunted Inhibition by cAMP Due to Deficient cAMP Response Element-Binding Protein Phosphorylation”, Journal of Pharmacology and Experimental Therapeutics (2005), 315(2), 678-687; ^2Watts, K. L., et. al., “RhoA signaling modulates cyclin D1 expression in human lung fibroblasts; implications for idiopathic pulmonary fibrosis”, Respiratory Research (2006), 7(1), 88] were obtained from American Type Culture Collection (ATCC) and expanded in F12 medium supplemented with 15% Fetal Bovine Serum and Penicillin/Streptomycin.
Each compound was dissolved in DMSO as a 10 mM stock and used to prepare compound source plates. Serial dilution (1:2, 11-point dose-response curves from 10 μM to 1.87 nM) and compound transfer was performed using the ECHO 550 (Labcyte, Sunnyvale, Calif.) into 384-well clear bottom assay plates (Greiner Bio-One) with appropriate DMSO backfill for a final DMSO concentration of 0.1%. LL29 cells were plated at 1,500 cells/well in 80 μl/well F12 medium supplemented with 1% Fetal Bovine Serum. One hour after addition of the cells, TGF-β1 (Peprotech; 20 ng/mL) was added to the plates to induce fibrosis (ref 1 and 2 above). Wells treated with TGF-β1 and containing DMSO were used as controls. Cells were incubated at 37° C. and 5% CO2 for 4 days. Following incubation for 4 days, SYTOX green nucleic acid stain (Life Technologies [Thermo Fisher Scientific]) was added to the wells at a final concentration of 1 uM and incubated at room temperature for 30 min. Cells were then fixed using 4% formaldehyde (Electron Microscopy Sciences), washed 3 times with PBS followed by blocking and permeabilization using 3% Bovine Serum Albumin (BSA; Sigma) and 0.3% Triton X-100 (Sigma) in PBS. Cells were then stained with antibody specific to α-smooth muscle actin (αSMA; Abcam) (ref 1 and 2 above) in 3% Bovine Serum Albumin (BSA; Sigma) and 0.3% Triton X-100 (Sigma) in PBS, and incubated overnight at 4° C. Cells were then washed 3 times with PBS, followed by incubation with Alexa Flor-647 conjugated secondary antibody (Life Technologies [Thermo Fisher Scientific]) and DAPI at room temperature for 1 hour. Cells were then washed 3 times with PBS and plates were sealed for imaging. αSMA staining was imaged by excitation at 630 nm and emission at 665 nm and quantified using the Compartmental Analysis program on the CellInsight CX5 (Thermo Scientific). Dead or apoptotic cells were excluded from analysis based on positive SYTOX green staining. % of total cells positive for αSMA were counted in each well and normalized to the average of 11 wells treated with TGF-β1 on the same plate using Dotmatics' Studies Software. The normalized averages (fold change over untreated) of 3 replicate wells for each compound concentration were used to create dose-responses curves and EC50 values were calculated using non-linear regression curve fit in the Dotmatics' Studies Software. The EC50 values are reported.

| IC50 [1] [nM] | SMILES | EC50 [2] [nM] |
| --- | --- | --- |
| 20 | CC(C)(C)CC(=O)Nc1cncc(-c2ccc3[nH]nc(-c4nc5c(-c6ccccc6F)nccc5[nH]4)c3c2)c1 [Compound 68, N-(5-(3-(4-(2-Fluorophenyl)-1H-imidazo[4,5-c]pyridin-2-yl)-1H-indazol-5-yl)pyridin-3-yl)-3,3-dimethylbutanamide] | 9 |
| 5 | CCCC(=O)Nc1cncc(-c2ccc3[nH]nc(-c4nc5c(-c6ccccc6F)nccc5[nH]4)c3c2)c1 [Compound 69, N-(5-(3-(4-(2-Fluorophenyl)-1H-imidazo[4,5-c]pyridin-2-yl)-1H-indazol-5-yl)pyridin-3-yl)butyramide] | 74 |
| 8 | O=C(Nc1cncc(-c2ccc3[nH]nc(-c4nc5c(-c6ccccc6F)nccc5[nH]4)c3c2)c1)C1CCCC1 [Compound 73, N-(5-(3-(4-(2-Fluorophenyl)-1H-imidazo[4,5-c]pyridin-2-yl)-1H-indazol-5-yl)pyridin-3-yl)cyclopentanecarboxamide] | 9 |
| 17.9 | CC(C)(C)C(=O)Nc1cncc(-c2ccc3[nH]nc(-c4nc5c(-c6cccnc6)nccc5[nH]4)c3c2)c1 [Compound 86, N-(5-(3-(4-(Pyridin-3-yl)-1H-imidazo[4,5-c]pyridin-2-yl)-1H-indazol-5-yl)pyridin-3-yl)pivalamide] | 993 |
| 3 | CC(C)C(=O)Nc1cncc(-c2ccc3[nH]nc(-c4nc5c(-c6cccnc6)nccc5[nH]4)c3c2)c1 [Compound 87, N-(5-(3-(4-(Pyridin-3-yl)-1H-imidazo[4,5-c]pyridin-2-yl)-1H-indazol-5-yl)pyridin-3-yl)isobutyramide] | 295 |
| 4 | CC(C)Nc1cncc(-c2ccc3[nH]nc(-c4nc5c(-c6cccnc6)nccc5[nH]4)c3c2)c1 [Compound 90, N-Isopropyl-5-(3-(4-(pyridin-3-yl)-1H-imidazo[4,5-c]pyridin-2-yl)-1H-indazol-5-yl)pyridin-3-amine] | 9 |
| 1190 | O=C(Nc1cncc(-c2ccc3[nH]nc(-c4nc5c(-c6ccncc6)nccc5[nH]4)c3c2)c1)C1CCCCC1 [Compound 126, N-(5-(3-(4-(Pyridin-4-yl)-1H-imidazo[4,5-c]pyridin-2-yl)-1H-indazol-5-yl)pyridin-3-yl)cyclohexanecarboxamide] | 9990 |
| 3060 | CCNCc1cncc(-c2ccc3[nH]nc(-c4nc5c(-c6ccccn6)nccc5[nH]4)c3c2)c1 [Compound 136, N-((5-(3-(4-(Pyridin-2-yl)-1H-imidazo[4,5-c]pyridin-2-yl)-1H-indazol-5-yl)pyridin-3-yl)methyl)ethanamine] | 9 |
| 51.4 | O=C(Nc1cncc(-c2ccc3[nH]nc(-c4nc5c(-c6ccccn6)nccc5[nH]4)c3c2)c1)C1CCC1 [Compound 150, N-(5-(3-(4-(Pyridin-2-yl)-1H-imidazo[4,5-c]pyridin-2-yl)-1H-indazol-5-yl)pyridin-3-yl)cyclobutanecarboxamide] | 1520 |
| 61 | c1ccc(-c2nccc3[nH]c(-c4n[nH]c5ccc(-c6cncc(CNCC7CCCC7)c6)cc45)nc23)nc1 [Compound 154, 1-Cyclopentyl-N-((5-(3-(4-(pyridin-2-yl)-1H-imidazo[4,5-c]pyridin-2-yl)-1H-indazol-5-yl)pyridin-3-yl)methyl)methanamine] | 61 |
| 183 | CCC(=O)Nc1cncc(-c2ccc3[nH]nc(-c4nc5c(N6CCCCC6)nccc5[nH]4)c3c2)c1 [Compound 157, N-(5-(3-(4-(Piperidin-1-yl)-1H-imidazo[4,5-c]pyridin-2-yl)-1H-indazol-5-yl)pyridin-3-yl)propionamide] | 71 |
| 278 | O=C(Nc1cncc(-c2ccc3[nH]nc(-c4nc5c(N6CCCCC6)nccc5[nH]4)c3c2)c1)C1CC1 [Compound 175, N-(5-(3-(4-(Piperidin-1-yl)-1H-imidazo[4,5-c]pyridin-2-yl)-1H-indazol-5-yl)pyridin-3-yl)cyclopropanecarboxamide] | 115 |

Further lines, the compound ahead of its results:

| SMILES | IC50 [1] [nM] | EC50 [2] [nM] |
| --- | --- | --- |
| c1cncc(-c2ccc3[nH]nc(-c4nc5c(-c6cccnc6)nccc5[nH]4)c3c2)c1 [Compound 82, 4-(Pyridin-3-yl)-2-(5-(pyridin-3-yl)-1H-indazol-3-yl)-1H-imidazo[4,5-c]pyridine] | 8 | 9 |
| c1cncc(-c2nccc3[nH]c(-c4n[nH]c5ccc(-c6cncc(CN7CCCCC7)c6)cc45)nc23)c1 [Compound 93, 2-(5-(5-(Piperidin-1-ylmethyl)pyridin-3-yl)-1H-indazol-3-yl)-4-(pyridin-3-yl)-1H-imidazo[4,5-c]pyridine] | 318 | 388 |
| c1ccc(CNCc2cncc(-c3ccc4[nH]nc(-c5nc6c(-c7cccnc7)nccc6[nH]5)c4c3)c2)cc1 [Compound 101, N-Benzyl-1-(5-(3-(4-(pyridin-3-yl)-1H-imidazo[4,5-c]pyridin-2-yl)-1H-indazol-5-yl)pyridin-3-yl)methanamine] | 47 | 2430 |
| CN(C)c1cncc(-c2ccc3[nH]nc(-c4nc5c(N6CCCCC6)nccc5[nH]4)c3c2)c1 [Compound 163, N,N-Dimethyl-5-(3-(4-(piperidin-1-yl)-1H-imidazo[4,5-c]pyridin-2-yl)-1H-indazol-5-yl)pyridin-3-amine] | 3 | 1550 |
| CN(C)Cc1cncc(-c2ccc3[nH]nc(-c4nc5c(N6CCCCC6)nccc5[nH]4)c3c2)c1 [Compound 169, N,N-Dimethyl-1-(5-(3-(4-(piperidin-1-yl)-1H-imidazo[4,5-c]pyridin-2-yl)-1H-indazol-5-yl)pyridin-3-yl)methanamine] | 4020 | 171 |
| FC1(F)CCN(Cc2cncc(-c3ccc4[nH]nc(-c5nc6c(N7CCCCC7)nccc6[nH]5)c4c3)c2)C1 [Compound 181, 2-(5-(5-((3,3-Difluoropyrrolidin-1-yl)methyl)pyridin-3-yl)-1H-indazol-3-yl)-4-(piperidin-1-yl)-1H-imidazo[4,5-c]pyridine] | 67 | 80.5 |
| Cc1cn(-c2nccc3[nH]c(-c4n[nH]c5ccc(-c6cncc(NC(=O)CC(C)C)c6)cc45)nc23)cn1 [Compound 184, 3-Methyl-N-(5-(3-(4-(4-methyl-1H-imidazol-1-yl)-1H-imidazo[4,5-c]pyridin-2-yl)-1H-indazol-5-yl)pyridin-3-yl)butanamide] | 2 | 49 |
| Cc1cn(-c2nccc3[nH]c(-c4n[nH]c5ccc(-c6cncc(NC(=O)C(C)(C)C)c6)cc45)nc23)cn1 [Compound 190, N-(5-(3-(4-(4-Methyl-1H-imidazol-1-yl)-1H-imidazo[4,5-c]pyridin-2-yl)-1H-indazol-5-yl)pyridin-3-yl)pivalamide] | 5 | 50 |
